Where two headings read alike, the source gives them in different places.
Assays:
[1] = molecular target: T1, extracellular domain (ECD, D1–D7) of VEGFR1 (Homo sapiens, UniProt P17948); conditions: cited from earlier work
T1 construct: VEGFR-1 D1-D7 (ECD domain)/Fc Chimera; purchased Bio-techne R&D, Abingdon, UK

[2] = molecular target: T1, extracellular domain (ECD, D1–D7) of VEGFR1; test: Chemiluminescent competition (displacement) assay: biotinylated VEGF165 (VEGF-A) vs peptide on coated VEGFR1; type: binding; conditions: for % of Displacement, 100 μM: biotinylated VEGF-A (131 pM btVEGF165) displaced by 100 μM peptide on VEGFR1 ECD (D1–D7), PBS 1% DMSO, 3 h 37 °C; for % of Displacement, 100 μM / % of Displacement, 30 μM: chemiluminescence; for % of Displacement, 100 μM / % of Displacement, 30 μM / IC50: three experiments in triplicate; for % of Displacement, 30 μM + EDTA: biotinylated VEGF-A displaced by 30 μM peptide in the presence of EDTA on VEGFR1 ECD (D1–D7), to avoid false positives from metals or aggregation; for % of Displacement, 30 μM: biotinylated VEGF-A displaced by 30 μM peptide on VEGFR1 ECD (D1–D7); for IC50: dose–response displacement assay on VEGFR1, log(inhibitor) vs. response fit, GraphPad Prism, read-out: IC50 (95% Confident Interval), relative inhibitory concentration 50
Description: The binding studies were performed on VEGF isoform VEGF-A (VEGF165) that is the most commonly involved in pathological angiogenesis. Compounds were first evaluated for their ability to displace biotinylated VEGF-A at two different doses, 30 and 100 μM (Table 2). A chemiluminescent assay, relying on competition between tested compounds and biotinylated VEGF-A for binding to the extracellular domain of recombinant VEGFR1, was used.
As described by Muller Y. A. et al., the surface of white high-binding 96-well microplate (Corning Life Sciences, Amsterdam, The Netherlands) was coated with 100 μL of phosphate-buffered saline solution (PBS, pH 7.4) containing 200 ng/mL of VEGFR-1 D1-D7 (ECD domain)/Fc Chimera or 150 ng/mL of VEGFR1 D1-D3/Fc chimera (Bio-techne R&D, Abingdon, UK) and incubated at 4 °C overnight. After three washes with 250 μL of PBS 0.1%, (v/v) tween 20 (buffer A), the plate was blocked by 200 μL of PBS with 3% (w/v) of BSA and stirred at 37 °C for 2 h. The plate was washed three times with buffer A. Then, 100 μL of a solution containing 131 pM of btVEGF165 (Bio-techne, R&D, Abingdon, UK) and the tested compounds at various concentration diluted in PBS containing 1% DMSO were added in each well. After 3 h stirring at 37 °C, the plate was washed four times with buffer A and 100 μL of streptavidin-horseradish peroxidase (Amersham Biosciences, Little Chalfont, UK) diluted at 1:8000 in PBS containing 0.1% (v/v) Tween 20 and 0.3% (w/v) BSA were added per well. After 1 h of incubation at 37 °C under obscurity and stirring, the plate was washed five times with 250 μL of buffer A and 100 μL of SuperSignal West Pico chemiluminescent substrate (Pierce, Appleton, WI, USA) were added. The remaining bt-VEGF165 was detected by chemiluminescence, which was quantified. The percentages of btVEGF165 displacement were calculated by the following formula: percentage of displacement = 100 × [1 − (S − NS)/(MS − NS)], where S is the signal measured, NS is the nonspecific binding signal and MS is the maximum binding signal observed with btVEGF165 without compounds tested. […] Each experiment was performed three times in triplicate.

T1 sequence (P17948 27-758 limits assumed): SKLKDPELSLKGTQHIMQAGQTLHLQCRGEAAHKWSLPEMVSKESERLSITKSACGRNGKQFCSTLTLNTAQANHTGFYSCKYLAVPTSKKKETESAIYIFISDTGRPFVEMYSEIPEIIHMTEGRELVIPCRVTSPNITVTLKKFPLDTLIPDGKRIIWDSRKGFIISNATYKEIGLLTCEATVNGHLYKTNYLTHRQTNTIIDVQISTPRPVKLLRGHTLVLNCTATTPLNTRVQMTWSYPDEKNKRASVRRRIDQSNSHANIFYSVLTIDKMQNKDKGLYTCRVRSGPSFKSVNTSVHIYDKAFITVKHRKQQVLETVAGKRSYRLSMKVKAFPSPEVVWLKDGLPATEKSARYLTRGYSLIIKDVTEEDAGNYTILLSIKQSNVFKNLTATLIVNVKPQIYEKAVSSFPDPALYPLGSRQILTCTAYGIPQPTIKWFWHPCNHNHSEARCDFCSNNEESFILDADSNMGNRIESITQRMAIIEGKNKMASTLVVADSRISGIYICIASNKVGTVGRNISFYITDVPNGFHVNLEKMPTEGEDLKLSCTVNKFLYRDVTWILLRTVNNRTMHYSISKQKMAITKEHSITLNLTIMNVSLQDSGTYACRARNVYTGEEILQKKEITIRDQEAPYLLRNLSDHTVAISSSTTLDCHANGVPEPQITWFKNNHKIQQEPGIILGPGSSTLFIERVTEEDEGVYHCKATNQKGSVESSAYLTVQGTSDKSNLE

Row | Substance | % of Displacement, 100 μM [2] | % of Displacement, 30 μM + EDTA [2] | % of Displacement, 30 μM [2] | IC50 [2] | IC50 ([1]; displacement of biotinylated VEGF165 from VEGFR1 ECD, previous study, read-out: IC50 (relative inhibitory concentration 50)) | % of Displacement, 100 μM ([1]; percentage of biotinylated VEGF165 displaced by 100 μM peptide on whole extracellular domain (ECD, D1–D7) of VEGFR1, previously described peptides)
1 | Ac-KLTWQELYQLKYKGI-NH2 [QK, proangiogenic peptide of D'Andrea and co-workers] | – | – | – | – | 32 ± 8 µM | 69 ± 3%
2 | Ac-SSEEFARNIAAYN-NH2 [Compound 32] | 60 ± 1% | 55 ± 1% | 59 ± 4% | 30.4 µM | – | –
3 | Ac-SSEEFARNWAAFN-NH2 [Compound 12] | 55 ± 1% | 53 ± 4% | 66 ± 1% | 48.6 µM | – | –
4 | Ac-SSEEFARNWAAIN-NH2 [Compound 29] | 72 ± 1% | 71 ± 2% | 60 ± 3% | 0.046 µM | – | –
5 | Ac-SSEEWARNFAAFN-NH2 [Compound 10] | 55 ± 1% | 55 ± 4% | 64 ± 3% | 14.5 µM | – | –

The remaining substances from weak to strong by IC50 [2], led by results:

Row | % of Displacement, 100 μM [2] | % of Displacement, 30 μM + EDTA [2] | % of Displacement, 30 μM [2] | IC50 [2] | Substance | IC50 ([1]; displacement of biotinylated VEGF165 from VEGFR1 ECD, previous study, read-out: IC50 (relative inhibitory concentration 50)) | % of Displacement, 100 μM ([1]; percentage of biotinylated VEGF165 displaced by 100 μM peptide on whole extracellular domain (ECD, D1–D7) of VEGFR1, previously described peptides)
6 | 63 ± 2% | 40 ± 7% | 63 ± 1% | 25.6 µM | Ac-SSEEYARNWAAWN-NH2 [Compound 8] | – | –
7 | 62 ± 1% | 44 ± 5% | 71 ± 2% | 21.3 µM | Ac-SSEEWARNYAAFN-NH2 [Compound 16] | – | –
8 | 58 ± 1% | 56 ± 6% | 62 ± 4% | 14 µM | Ac-SSEEYARNWAAFN-NH2 [Compound 14] | – | –
